Patent US7943146B2, “Immunizing compositions comprising HIV-1 proviral constructs with an inactive p6 gag TSG101 UEV binding domain capable of producing budding-defective viral particles that remain tethered to the cell surface” (priority 2001, dated 2011)

Key:
HIV = assay: microbe, parasite or virus in culture; assay type: cell-based, HIV-1
Procedure: Fresh human blood was obtained commercially from Interstate Blood Bank, Inc. (Memphis, Tenn.). The lymphotropic clinical isolate HIV-1ROJO was obtained from a pediatric patient attending the AIDS Clinic at the University of Alabama at Birmingham. The laboratory-adapted HIV-1IIIB strain was propagated and tittered in fresh human PBMCs; pre-titered aliquots of HIV-1ROJO and Hiv-1IIIB were removed from the freezer (−80° C.) and thawed rapidly to room temperature in a biological safety cabinet immediately before use. Phytohemagglutinin (PHA-P) was obtained from Sigma (St. Louis, Mo.) and recombinant IL-2 was obtained from Amgen (San Francisco, Calif.).
Fresh human PBMCs were isolated from screened donors, seronegative for HIV and HBV. Leukophoresed blood was diluted 1:1 with Dulbecco's phosphate buffered saline (PBS), layered over 14 mL of Ficoll-Hypaque density gradient in a 50 mL centrifuge tube and then centrifuged for 30 minutes at 600×g. Banded PBMCs were aspirated from the resulting interface and subsequently washed 2× with PBS by low speed centrifugation. After the final wash, cells were enumerated by trypan blue exclusion and re-suspended at 1×10^7 cells/mL in RPMI 1640 supplemented with 15% Fetal Bovine Serum (FBS), 2 mM L-glutamine, 4 μg/mL PHA-P. The cells were allowed to incubate for 48-72 hours at 37° C. After incubation, PBMCs were centrifuged and reset in RPMI 1640 with 15% FBS, 2 mM L-glutamine, 100 U/ml penicillin, 100 μg/mL streptomycin, 10 μg/mL gentamycin, and 20 U/mL recombinant human IL-2. PBMCs were maintained in this medium at a concentration of 1-2×10^6 cells/mL with biweekly medium changes until used in the assay protocol.
For the standard PBMC assay, PHA-P stimulated cells from at least two normal donors were pooled, diluted in fresh medium to a final concentration of 1×10^6 cells/mL, and plated in the interior wells of 96 well round bottom microplate at 50 μL/well (5×10^4 cells/well). Test drug dilutions were prepared at a 2× concentration in microtiter tubes and […] of each concentration was placed in appropriate wells in a standard format. […] Wells with cells and virus alone were used for virus control. Separate plates were prepared identically without virus for drug cytotoxicity studies using an XTT assay system. The PBMC cultures were maintained for seven days following infection, at which time cell-free supernate samples were collected and assayed for reverse transcriptase activity as described below.
A microtiter based reverse transcriptase (RT) reaction was utilized. See Buckheit et al., AIDS Research and Human Retroviruses 7:295-302 (1991). Tritiated thymidine triphosphate (NEN) (TTP) was resuspended in distilled H2O at 5 Ci/ml. Poly rA and oligo dT were prepared as a stock solution which was kept at −20° C. The RT reaction buffer was prepared fresh on a daily basis and consists of 125 μl 1M EGTA, 125 μl dH2O, 110 μl 10% SDS, 50 μl 1M Tris (pH 7.4), 50 μl 1M DTT, and 40 μl 1M MgCL2. These three solutions were mixed together in a ratio of 2 parts TTP, 1 part poly rA:oligo dT, and 1 part reaction buffer. Ten microliters of this reactions mixture was placed at a round bottom microtiter plate and 15 μl of virus containing supernatant was added and mixed. […] Opti-Fluor-O (Packard) was added to each sample and incorporated radioactivity was quantified utilizing a Wallac 1450 MicroBeta Plus liquid scintillation counter.

[1] = Cytotoxicity measurement in uninfected PBMCs (MTS staining); assay type: cell-based; settings: human PBMCs without virus, seven days; read-out: TC50
Procedure: At assay termination the assay plates were stained with the soluble tetrazolium-based dye MTS (CellTiter Reagent, Promega) to determine cell viability and quantify compound toxicity. MTS is metabolized by the mitochondria enzymes of metabolically active cells to yield a soluble formazan product, allowing the rapid quantitative analysis cell viability and compound cytotoxicity. […] At termination of the assay, 20 μl of MTS reagent was added per well. The wells were incubated overnight for the HIV cytoprotection assay at 37° C. The incubation intervals were chosen based on empirically determined times for optimal dye reduction in each cell type. Adhesive plate sealers were used in place of the lids, the sealed plate was inverted several times to mix the soluble formazan product and the plate was read spectrophotometrically at 490 nm with a Molecular Devices Vmax plate reader.

[2] = target: T1, interaction between GAGp6 and Tsg101 (Homo sapiens, UniProt Q99816); assay: In vitro binding assay: GST-p6 on plate, myc-tagged Tsg101 (residues 1-207), competition by peptide; settings: FIG. 3, different peptide concentrations, fluorescence signal
T1 construct: Drosophila S2 cell lysate myc-tagged Tsg101 (residues 1-207); made in house; host or cells: Drosophila S2 cells (Tsg101, used as cell lysate)
T1 sequence (Q99816 1-207): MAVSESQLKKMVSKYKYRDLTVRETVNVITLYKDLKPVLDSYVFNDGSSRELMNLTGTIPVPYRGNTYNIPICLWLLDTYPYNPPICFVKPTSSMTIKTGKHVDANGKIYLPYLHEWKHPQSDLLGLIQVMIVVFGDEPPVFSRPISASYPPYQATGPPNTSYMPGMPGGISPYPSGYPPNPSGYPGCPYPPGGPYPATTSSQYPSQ
Procedure: A fusion protein with a GST tag fused to the HIV-1 GAGp6 domain was recombinantly expressed and purified by chromatography. In addition, a GAGp6 peptide containing the first 14 amino acid residues (“p6(1-14)”) was synthesized chemically by standard peptide synthesis methods. The peptide was purified by conventional protein purification techniques, e.g., by chromatography.
Nunc/Nalgene Maxisorp plates were incubated overnight at 4° C. or for 1-2 hrs at room temperature in 100 μl of a protein coupling solution containing purified GST-p6 and 50 mM Carbonate, pH=9.6. This allowed the attachment of the GST-p6 fusion protein to the plates. Liquids in the plates were then emptied and wells filled with 400 μl/well of a blocking buffer (SuperBlock; Pierce-Endogen, Rockford, Ill.). […]
Plates were then washed 4×100 μl with 1×PBST solution (Invitrogen; Carlsbad, Calif.). […] Plates were then read on a Packard Fusion instrument at an excitation wavelength of 325 nm and an emission wavelength of 420 nm. […]
Different concentrations of the p6(1-14) peptide were tested, and the relative intensities of the fluorescence signals obtained at different concentrations were plotted against the peptide concentrations. […]

Cc1cn([C@H]2C[C@H](N=[N+]=[N-])[C@@H](CO)O2)c(=O)[nH]c1=O [AZT, 3′-Azido-3′-deoxythymidine, reference compound]
IC50 (HIV; Human immunodeficiency virus 1, PBMC, 168 h, PHA-P stimulated human PBMCs, MOI≈0.1, seven days, RT activity in supernate): 8 nM
Comments (anti-HIV activity) (HIV; human PBMCs): Control; Highly Active
CC50 at 7 days [1]: > 1000 nM

p6(1-14): GAGp6 peptide containing the first 14 amino acid residues, synthesized chemically (LQSRPEPTAPPEES)
inhibition of the interaction between GAGp6 and Tsg101 [2]: competitive inhibition
